Laboratory results published in patent publication US5703236A, “Tetrahydrofuran antifungals” (Schering Corporation, priority 1995, dated 1997).

Assays:
Dermatophytes = test: conventional broth dilution in vitro antifungal test, dermatophytes; assay type: cell-based, T. rubrum, T. mentagrophytes, and T. tonsurans; conditions: 6 strains
Aspergillus = test: conventional broth dilution in vitro antifungal test, Aspergillus; assay type: cell-based, Aspergillus flavus, fumigatus and other species; conditions: 37 strains
Procedure: (§1) The in vitro antifungal activity tests were performed via conventional broth dilution methods in Sabouraud dextrose broth ("SDB") medium and Eagles Minimum Essential Medium ("EMEM") against a large number of fungi. Minimum Inhibitory Concentrations ("MICs") were measured after 24, 48 and 72 hour tests. In many cases, Minimum Fungicidial Concentrations ("MFCS") were measured after 48 and 72 hours.

[1] = system: Candida tropicalis & stellatoidea; test: conventional broth dilution in vitro antifungal test, Candida tropicalis & stellatoidea; assay type: cell-based; conditions: 5 strains
Procedure: as §1

Candida krusei = test: conventional broth dilution in vitro antifungal test, Candida krusei; assay type: cell-based; conditions: 16 strains
Procedure: as §1

Candida glabrata = test: conventional broth dilution in vitro antifungal test, Candida glabrata; assay type: cell-based; conditions: 9 strains; for percentage of strains with MFCs ≤ 1 mcg/mL: Table R (MFCs); for PERCENTAGE OF STRAINS WITH MICs ≤ 1 MCG/ML: Table Q
Procedure: as §1

Candida albicans = test: conventional broth dilution in vitro antifungal test, Candida albicans; assay type: cell-based; conditions: 26 strains; for percentage of strains with MFCs ≤ 1 mcg/mL: Table R (MFCs); for PERCENTAGE OF STRAINS WITH MICs ≤ 1 MCG/ML: Table Q
Procedure: as §1

Cryptococcus neoformans = test: conventional broth dilution in vitro antifungal test, Cryptococcus neoformans; assay type: cell-based; conditions: 3 strains; for MIC 90: Table S
Procedure: as §1

[2] = system: cytochrome P-450 liver drug metabolizing enzymes; test: induction of cytochrome P-450 liver drug metabolizing enzymes, in vivo rat model; conditions: oral administration
[3] = serum levels, half lives and tissue distribution following oral dosing; assay type: in vivo; conditions: mice, rats, dogs and monkeys, methyl cellulose formulation

SMILES	PERCENTAGE OF STRAINS WITH MICs ≤ 1 MCG/ML (Dermatophytes; Table R (MFCs)) [%]	PERCENTAGE OF STRAINS WITH MICs ≤ 1 MCG/ML (Aspergillus; Table R (MFCs)) [%]	PERCENTAGE OF STRAINS WITH MICs ≤ 1 MCG/ML ([1]; Table R (MFCs)) [%]	PERCENTAGE OF STRAINS WITH MICs ≤ 1 MCG/ML (Candida krusei; Table R (MFCs)) [%]	percentage of strains with MFCs ≤ 1 mcg/mL (Candida glabrata) [%]	percentage of strains with MFCs ≤ 1 mcg/mL (Candida albicans) [%]	PERCENTAGE OF STRAINS WITH MICs ≤ 1 MCG/ML (Cryptococcus neoformans; Table R (MFCs)) [%]	PERCENTAGE OF STRAINS WITH MICs ≤ 1 MCG/ML (Dermatophytes; Table Q) [%]	PERCENTAGE OF STRAINS WITH MICs ≤ 1 MCG/ML (Aspergillus; Table Q) [%]	PERCENTAGE OF STRAINS WITH MICs ≤ 1 MCG/ML ([1]; Table Q) [%]	PERCENTAGE OF STRAINS WITH MICs ≤ 1 MCG/ML (Candida krusei; Table Q) [%]	PERCENTAGE OF STRAINS WITH MICs ≤ 1 MCG/ML (Candida glabrata) [%]	PERCENTAGE OF STRAINS WITH MICs ≤ 1 MCG/ML (Candida albicans) [%]	PERCENTAGE OF STRAINS WITH MICs ≤ 1 MCG/ML (Cryptococcus neoformans; Table Q) [%]	MIC 90 (Cryptococcus neoformans)	induction of cytochrome P-450 liver drug metabolizing enzymes [2]	serum levels compared to azoles of similar structure [3]
OC(Cn1cncn1)(Cn1cncn1)c1ccc(F)cc1F [FLZ, fluconazole, reference compound]	0	0	100	0	0	100	0	–	–	–	–	–	–	–	–	–	–
CCC(C(C)O)n1ncn(-c2ccc(N3CCN(c4ccc(OCC5COC(Cn6cncn6)(c6ccc(F)cc6F)C5)cc4)CC3)cc2)c1=O (centres unmarked) [drawing 31]	100	89	100	100	22	100	100	100	100	100	100	33	100	100	–	–	–
CCC(C(C)O)n1ncn(-c2ccc(N3CCN(c4ccc(OCC5COC(Cn6cncn6)(c6ccc(F)cc6F)C5)cc4)CC3)cc2)c1=O (centres unmarked) [drawing 29]	67	50	100	88	22	100	100	100	100	100	100	22	100	100	.05 MCG/ML	–	–
CCC(C(C)O)n1ncn(-c2ccc(N3CCN(c4ccc(OCC5COC(Cn6cncn6)(c6ccc(F)cc6F)C5)cc4)CC3)cc2)c1=O (centres unmarked) [drawing 30]	83	62	100	94	22	100	100	100	100	100	100	22	100	100	.007 MCG/ML	–	–
CCC(C(C)O)n1ncn(-c2ccc(N3CCN(c4ccc(OCC5COC(Cn6cncn6)(c6ccc(F)cc6F)C5)cc4)CC3)cc2)c1=O (centres unmarked) [drawing 28]	–	–	–	–	–	–	–	–	–	–	–	–	–	–	–	not inducers of various cytochrome P-450 liver drug metabolizing enzymes	consistently higher serum levels
